We go through 37 compounds from PMC12062876, “Efficient constitution of a library of rotenoid analogs active against Trypanosoma cruzi from a digitalized plant extract collection” (RSC Advances, 2025).

The test system of one series is T. cruzi amastigotes. The series is described as follows: Activity against intracellular T. cruzi amastigotes. It counts as cell-based, Trypanosoma cruzi. To be noted: for Selectivity index: SI = IC50 cytotoxicity/IC50 against T. cruzi; for IC50: Trypanosoma cruzi, read-out: IC50 T. cruzi amastigotes. The text has this: The bioactivity of isolated compounds against intracellular T. cruzi amastigotes grown in rat L6 […] is presented in Table 1. […] Rotenone and deguelin are known to be strong mitochondrial complex I (also known as NADH:ubiquinone oxidoreductase) inhibitors,[43–45] while different activities between closely related rotenoids (rotenone, 5′-α-epirotenone, and 5′-β-epirotenone) has already been shown. […] The variation in activity observed on our rapidly generated series of structural analogs points in the same direction. As shown in Fig. 3 and Table 1, the cyclic and bent form of the rotenoid at the B/C ring junction is essential for activity, since compounds 40 and 41 were not active.
The pure compounds activity was assessed against T. cruzi amastigotes as described in ref. [27].

Series [1] can be described thus: Cytotoxicity assay: L-6 cells. Format: cell-based. To be noted: rat skeletal myoblast (L6 cells); means of two independent assays. On the procedure:
The pure compounds cytotoxicity was assessed against L6 cells as described in ref. [27].

Setting [2] is: intracellular amastigotes grown in rat L6 cells, means of two independent assays.

Structures are written as SMILES. Where two headings read alike, the source gives them in different places.

`COc1c2c(cc3ccoc13)C(=O)[C@@]1(O)c3cc4c(cc3OC[C@H]1O2)OCO4` (relative stereo) [Compound 29, 12a-hydroxypachyrhizone] came in with a Selectivity index in the series on T. cruzi amastigotes of 1.3. For the same compound, the 50% inhibitory concentration (IC50) in the series on T. cruzi amastigotes (setting [2]) stood at 93.2 µM; in series [1], 125 µM.
On the same counts, the results for `O=C1c2cc3ccoc3cc2O[C@@H]2COc3cc4c(cc3[C@]12O)OCO4` (relative stereo) [Compound 30, 12a-hydroxydolineone] are 0.7, 195 µM and 141 µM.
On the same counts, the results for `COc1cc2c(cc1OC)[C@]1(O)C(=O)c3cc4ccoc4cc3O[C@@H]1CO2` (relative stereo) [Compound 31, 12a-hydroxyerosone] are 5.7, 19.7 µM and 113 µM.
Take `COc1cc2c(cc1OC)[C@@H]1C(=O)c3cc4ccoc4cc3O[C@@H]1CO2` (relative stereo) [Compound 32, erosone]: the Selectivity index with T. cruzi amastigotes is on record as 2.9. Besides, the IC50 with T. cruzi amastigotes (setting [2]) turned out to be 39.3 µM; in series [1] it was 115 µM.
`COc1cc2c(cc1OC)[C@]1(O)[C@H](OC(C)=O)c3ccc4occc4c3O[C@@H]1CO2` (relative stereo) [Compound 33, 12-deoxo-12α-acetoxy-12a-β-hydroxyelliptone] showed a Selectivity index with T. cruzi amastigotes of 1.5. Also, the IC50 in the series on T. cruzi amastigotes (setting [2]) is 65.1 µM; in series [1] it was 98.2 µM.
The like results for `CC(=O)OC1C2c3c(ccc4c3OC(c3ccccc3)CC4=O)OC2OC1(C)C` (single isomer, unassigned; (-)) [Compound 11, (−)-purpurin] were, in that order, 3.5, 1.78 µM and 6.25 µM.
Take `O=C(Cn1ccnc1[N+](=O)[O-])NCc1ccccc1` [Benznidazole, reference compound]: in the series on T. cruzi amastigotes (setting [2]), the half-inhibitory concentration (IC50) was 3.14 µM.
As for `COc1cc(O)ccc1[C@@H]1COc2cc(O)c(CC=C(C)C)cc2C1` [Compound 1, 2′-O-methylmanuifolin H], the Selectivity index with T. cruzi amastigotes amounted to 3.5. The concentration for half-maximal inhibition (IC50) came to 28.2 µM in the series on T. cruzi amastigotes (setting [2]) and 99 µM in series [1].
In the series on T. cruzi amastigotes, `CC(C)=CCc1cc2c(cc1O)OCC(c1ccc(O)cc1)C2O` (centres unmarked) [Compound 2, bavaisoflavanol] returned a Selectivity index of 1.1. Besides, the concentration for half-maximal inhibition (IC50) with T. cruzi amastigotes (setting [2]) stood at 43.1 µM; in series [1] it was 49.5 µM.
On the same counts, the results for `CC(C)=CCc1cc2c(cc1O)OC[C@@H](c1ccc(O)cc1O)C2` [Compound 3, manuifolin H] are 3.7, 28.3 µM and 106 µM.
On the same counts, the results for `COc1cc(O)ccc1C1COc2cc(O)ccc2C1` (centres unmarked) [Compound 4, 7,4′-dihydroxy-2′-methoxyisoflavan] are 1.4, 247 µM and 358 µM.
On the same counts, the results for `COc1cc2c(cc1C1COc3cc(O)ccc3C1)OCO2` (centres unmarked) [Compound 5, astraciceran] are 0.8, 94.1 µM and 75.4 µM.
The compound `COc1cc(O)ccc1C1COc2cc3c(cc2C1)CC(C(C)(C)O)O3` (centres unmarked) [Compound 6, 4-(2-(2-hydroxypropan-2-yl)-2,3,6,7-tetrahydro-5H-furo[3,2-g]chromen-6-yl)-3-methoxyphenol] yielded a Selectivity index in the series with T. cruzi amastigotes of 0.8. The half-maximal inhibitory concentration (IC50) in the series on T. cruzi amastigotes (setting [2]) stood at 203 µM; in series [1], 154 µM.
Turning to `CC(C)=CCc1c(O)ccc(C(=O)/C=C/c2ccc(O)cc2)c1O` [Compound 7, isobavachalcone], the Selectivity index with T. cruzi amastigotes turned out to be 1.7. Further, the half-maximal inhibitory concentration (IC50) in the series with T. cruzi amastigotes (setting [2]) amounted to 60.1 µM; in series [1] it was 104 µM.
On the same counts, the results for `COc1c(C(=O)/C=C(\O)c2ccccc2)ccc2occc12` [Compound 8, pongamol] are 2.7, 26.8 µM and 73.6 µM.
The like results for `C=C(C)/C=C/c1c(OC)ccc2c1OC(c1ccccc1)CC2=O` (centres unmarked) [Compound 9, dehydroisoderricin] were, in that order, 1.4, 66.2 µM and 95.4 µM.
`O=c1cc(-c2ccccc2)oc2c1ccc1occc12` [Compound 10, lanceolatin B] had a Selectivity index with T. cruzi amastigotes of 13.6. Besides, the IC50 with T. cruzi amastigotes (L6, in Rattus norvegicus) is 9.58 µM; in series [1], 130 µM.
As for `CC(=O)OC(C1COc2ccc3c(c21)OC(c1ccc(O)cc1)CC3=O)C(C)(C)O` (centres unmarked) [Compound 12, 2-hydroxy-1-(2-(4-hydroxyphenyl)-4-oxo-3,4,8,9-tetrahydro-2H-furo[2,3-h]chromen-9-yl)-2-methylpropyl acetate], in the series on T. cruzi amastigotes, the Selectivity index is 1.7. Also, the 50% inhibitory concentration (IC50) in the series with T. cruzi amastigotes (setting [2]) was found to be 58.8 µM; in series [1], 99.4 µM.
`CC(=O)OC(C1COc2ccc3c(c21)OC(c1ccccc1)CC3=O)C(C)(C)O` (centres unmarked) [Compound 13, 2-hydroxy-2-methyl-1-(4-oxo-2-phenyl-3,4,8,9-tetrahydro-2H-furo[2,3-h]chromen-9-yl)propyl acetate] gave a Selectivity index with T. cruzi amastigotes of 1.1. The 50% inhibitory concentration (IC50) stood at 123 µM in the series on T. cruzi amastigotes (setting [2]) and 131 µM in series [1].
The like results for `CC(C)(O)C(OC(=O)C=Cc1ccccc1)C1COc2ccc3c(c21)OC(c1ccccc1)CC3=O` (centres unmarked) [Compound 14, 2-hydroxy-2-methyl-1-(4-oxo-2-phenyl-3,4,8,9-tetrahydro-2H-furo[2,3-h]chromen-9-yl)propyl cinnamate] were, in that order, 5.1, 16 µM and 81.6 µM.
For the compound `Oc1ccc2c(c1)OC[C@H]1c3cc4c(cc3O[C@@H]21)OCO4` [Compound 16, maackiain], the Selectivity index in the series with T. cruzi amastigotes is recorded as 1.3. Moreover, the IC50 with T. cruzi amastigotes (setting [2]) came out at 119 µM; in series [1] it was 156 µM.
On the same counts, the results for `C=C(C)[C@H]1Cc2cc3c(cc2O1)OC[C@H]1c2cc4c(cc2O[C@@H]31)OCO4` [Compound 17, emoroidocarpan] are 1.8, 47.8 µM and 84.8 µM.
The like results for `C=C(CO)C1Cc2cc3c(cc2O1)OCC1c2cc4c(cc2OC31)OCO4` (stereo not drawn) [Compound 18, (2′R)-4′-hydroxyemoroidocarpan] were, in that order, 2.9, 40.1 µM and 118 µM.
`C=C(C)[C@H]1Cc2cc3c(cc2O1)oc(=O)c1c2cc4c(cc2oc31)OCO4` [Compound 19, tephcalostan] had a Selectivity index in the series on T. cruzi amastigotes of 1.8. Besides, the IC50 with T. cruzi amastigotes (setting [2]) stood at 65.6 µM; in series [1], 119 µM.
The like results for `CC1(C)C=Cc2c(ccc(-c3coc4cc(O)ccc4c3=O)c2O)O1` [Compound 20, glabrone] were, in that order, 1.2, 149 µM and 186 µM.
On the same counts, the results for `CC1(C)C=Cc2c(ccc(-c3coc4cc(O)c(O)cc4c3=O)c2O)O1` [Compound 21, 5′,6,7-trihydroxy-2′,2′-dimethyl-2′H,4H-[3,6′-bichromen]-4-one] are 1.4, 56.8 µM and 76.6 µM.
The like results for `COc1ccc(-c2coc3cc(O)ccc3c2=O)cc1` [Compound 22, formononetin] were, in that order, 1.0, 217 µM and 224 µM.
Take `COc1c(-c2coc3cc4c(cc3c2=O)C=CC(C)(C)O4)ccc2c1C=CC(C)(C)O2` [Compound 23, munetone]: the Selectivity index with T. cruzi amastigotes is on record as 5.3. Moreover, the concentration for half-maximal inhibition (IC50) came to 7.35 µM in the series with T. cruzi amastigotes (setting [2]) and 38.8 µM in series [1].
For the compound `COc1cc2occ(-c3ccc4c(c3)OCO4)c(=O)c2cc1O` [Compound 24, acicerone], the Selectivity index in the series on T. cruzi amastigotes is recorded as 2.1. The IC50 in the series on T. cruzi amastigotes (setting [2]) came out at 86.8 µM; in series [1], 186 µM.
The like results for `COc1ccc(-c2coc3cc(OC)c(O)cc3c2=O)cc1` [Compound 25, alfalone] were, in that order, 1.1, 241 µM and 263 µM.
On the same counts, the results for `CC(C)=CCc1c(O)cc2occ(-c3ccc(O)cc3)c(=O)c2c1O` [Compound 27, wighteone] are 2.2, 46.6 µM and 104 µM.
On the same counts, the results for `COc1cc2c(cc1-c1coc3cc4occc4cc3c1=O)OCO2` [Compound 28, dehydroneotenone] are 5.1, 3.59 µM and 18.3 µM.
`COc1cc2c(cc1OC)C1C(CO2)Oc2c(ccc3occc23)C1OC(C)=O` (stereo not drawn) [Compound 34, 12-deoxo-12α-acetoxyelliptone]: the Selectivity index in the series with T. cruzi amastigotes was determined as 3.8. Also, the values for the IC50 (in the series on T. cruzi amastigotes (setting [2]); in series [1]) were 27.1 µM and 104 µM, respectively.
`COc1cc2c(cc1OC)[C@@H]1C(=O)c3ccc4occc4c3O[C@@H]1CO2` [Compound 35, elliptone] came in with a Selectivity index with T. cruzi amastigotes of 5.4. The IC50 worked out at 18.2 µM in the series on T. cruzi amastigotes (setting [2]) and 99 µM in series [1].
The like results for `COc1cc2c(cc1OC)[C@]1(O)C(=O)c3ccc4occc4c3O[C@@H]1CO2` [Compound 36, 12a-hydroxyelliptone] were, in that order, 18.5, 5.42 µM and 100 µM.
In the series with T. cruzi amastigotes, `COc1cc2c(cc1OC)[C@]1(O)C(=O)c3ccc4c(c3O[C@@H]1CO2)C=CC(C)(C)O4` [Compound 38, tephrosin] registered a Selectivity index of 1937.0. The IC50 came out at 0.04 µM with T. cruzi amastigotes (L6, in Rattus norvegicus) and 72.4 µM in series [1].
The compound `COc1cc([C@@H]2c3cc4c(cc3[C@H](O)[C@H]3COC(=O)[C@H]23)OCO4)cc(OC)c1OC` [Podophyllotoxin, reference compound] returned a half-inhibitory concentration (IC50) in series [1] of 0.02 µM.

What is called IC50 is the point on the concentration scale where inhibition reaches its midpoint.
